Data as given in patent US9248117B2, “Substituted N,N-dihaloamines as antimicrobials” (priority 2010, dated 2016).
Converted amounts (≈) assume the structure as drawn.

Assays:
E. coli 25922 = test: MBC/MFC against E. coli 25922; type: cell-based; settings: Escherichia coli, Table 3
S. aureus 29213 = test: MBC/MFC against S. aureus 29213; type: cell-based; settings: Staphylococcus aureus, Table 3
C. albicans 10231 = test: MBC/MFC against C. albicans 10231; type: cell-based; settings: Candida albicans, Table 3
L929 cells = test: CT50 cytotoxicity in L929 cells; settings: pH 7 phosphate; Table 3

| Structure (SMILES) | MBC (E. coli 25922; pH 4 acetate) | MBC (E. coli 25922; pH 7 phosphate) | MBC (S. aureus 29213; pH 4 acetate) | MBC (S. aureus 29213; pH 7 phosphate) | MFC (C. albicans 10231; pH 4 acetate) | MFC (C. albicans 10231; pH 7 phosphate) | CT50 L929 cells (L929 cells) |
| --- | --- | --- | --- | --- | --- | --- | --- |
| COCCOCCOCCS(=O)(=O)CC(C)(C)N(Cl)Cl [Compound 38-01, dichloro[1-({2-[2-(2-methoxyethoxy)ethoxy]ethane}sulfonyl)-2-methylpropan-2-yl]amine] | 2 µg/mL (≈ 5.68 µM) | 256 µg/mL (≈ 727 µM) | 2 µg/mL (≈ 5.68 µM) | 256 µg/mL (≈ 727 µM) | 32 µg/mL (≈ 90.8 µM) | > 512 µg/mL | 0.06 mM |
| CC(C)(CCS(=O)(=O)CCO)N(Cl)Cl [Compound 38-25, 2-(3-(Dichloroamino)-3-methylbutylsulfonyl)ethanol] | 0.5 µg/mL (≈ 1.89 µM) | 8 µg/mL (≈ 30.3 µM) | 1 µg/mL (≈ 3.79 µM) | 16 µg/mL (≈ 60.6 µM) | 16 µg/mL (≈ 60.6 µM) | 512 µg/mL (≈ 1940 µM) |  |
| CC(C)(CCS(=O)(=O)CC(O)CO)N(Cl)Cl (stereo not shown) [Compound 38-27, 3-(3-(Dichloroamino)-3-methylbutylsulfonyl)propane-1,2-diol] | 2 µg/mL (≈ 6.8 µM) | 16 µg/mL (≈ 54.4 µM) | 2 µg/mL (≈ 6.8 µM) | 4 µg/mL (≈ 13.6 µM) | > 256 µg/mL | > 1020 µg/mL | 0.13 mM |
| CC(C)(CCS(=O)(=O)CC(O)C(O)CO)N(Cl)Cl (stereo not shown) [Compound 38-29, 4-(3-(Dichloroamino)-3-methylbutylsulfonyl)butane-1,2,3-triol] | 2 µg/mL (≈ 6.17 µM) | 128 µg/mL (≈ 395 µM) | 1 µg/mL (≈ 3.08 µM) | 32 µg/mL (≈ 98.7 µM) | 256 µg/mL (≈ 790 µM) | > 1020 µg/mL |  |
| COCC[N+](C)(C)CCC(C)(C)N(Cl)Cl.[Cl-] [Compound 38-43, 3-(dichloroamino)-N-(2-methoxyethyl)-N,N,3-trimethylbutan-1-aminium chloride] | 2 µg/mL | 1020 µg/mL | 1 µg/mL | 512 µg/mL | 32 µg/mL | > 2050 µg/mL | 1.2 mM |
| COCCOCCOCC[N+](C)(C)CCC(C)(C)N(Cl)Cl [Compound 38-45, 3-(dichloroamino)-N-(2-(2-(2-methoxyethoxy)ethoxy)ethyl)-N,N,3-trimethylbutan-1-aminium 4-methylbenzenesulfonate] | 4 µg/mL | 1020 µg/mL | 4 µg/mL | 1020 µg/mL | 64 µg/mL | > 2050 µg/mL | 3.2 mM |
| CC(=O)OCC(O)CS(=O)(=O)CCC(C)(C)N(Cl)Cl (stereo not shown) [Compound 38-49, 3-(3-(Dichloroamino)-3-methylbutylsulfonyl)-2-hydroxypropyl acetate] | 2 µg/mL | 64 µg/mL | 4 µg/mL | 32 µg/mL | 16 µg/mL | > 512 µg/mL |  |
| CC(=O)OCC(CS(=O)(=O)CCC(C)(C)N(Cl)Cl)OC(C)=O (stereo not shown) [Compound 38-51, 3-(3-(Dichloroamino)-3-methylbutylsulfonyl)propane-1,2-diyl diacetate] | 1 µg/mL | 128 µg/mL | 2 µg/mL | 128 µg/mL | 16 µg/mL | 128 µg/mL |  |
| CC(C)(CCS(=O)(=O)CCOCCOCCS(=O)(=O)O)N(Cl)Cl [Compound 38-81, 2-(2-(2-(3-(dichloroamino)-3-methylbutylsulfonyl)ethoxy)ethoxy) ethanesulfonic acid] | 2 µg/mL (≈ 4.8 µM) | 32 µg/mL (≈ 76.9 µM) | 4 µg/mL (≈ 9.61 µM) | 256 µg/mL (≈ 615 µM) | 128 µg/mL (≈ 307 µM) | > 2050 µg/mL | 2.13 mM |
| CC(C)(CCS(=O)(=O)CCOCCS(=O)(=O)O)N(Cl)Cl [Compound 38-83, 2-(2-(3-(dichloroamino)-3-methylbutylsulfonyl)ethoxy)ethanesulfonic acid] | 2 µg/mL (≈ 5.37 µM) | 128 µg/mL (≈ 344 µM) | 1 µg/mL (≈ 2.69 µM) | 256 µg/mL (≈ 688 µM) | 128 µg/mL (≈ 344 µM) | > 1020 µg/mL | 1.74 mM |
| CC(C)(CCS(=O)(=O)CCOCCOCCO)N(Cl)Cl [Compound 38-85, 2-(2-(2-(3-(Dichloroamino)-3-methylbutylsulfonyl)ethoxy)ethoxy)ethanol] | 4 µg/mL (≈ 11.4 µM) | 64 µg/mL (≈ 182 µM) | 4 µg/mL (≈ 11.4 µM) | 64 µg/mL (≈ 182 µM) | 32 µg/mL (≈ 90.8 µM) | > 1020 µg/mL | 0.04 mM |
| CC(=O)OCCOCCOCCS(=O)(=O)CCC(C)(C)N(Cl)Cl [Compound 38-87, 2-(2-(2-(3-(Dichloroamino)-3-methylbutylsulfonyl)ethoxy)ethoxy)ethyl acetate] | 4 µg/mL | 128 µg/mL | 4 µg/mL | 128 µg/mL | 32 µg/mL | 512 µg/mL |  |
| CCOCCOCCOCCS(=O)(=O)CCC(C)(C)N(Cl)Cl [Compound 38-89, N,N-dichloro-4-(2-(2-(2-ethoxyethoxy)ethoxy)ethylsulfonyl)-2-methylbutan-2-amine] | 8 µg/mL (≈ 21 µM) | 256 µg/mL (≈ 673 µM) | 8 µg/mL (≈ 21 µM) | 128 µg/mL (≈ 337 µM) | 4 µg/mL (≈ 10.5 µM) | 512 µg/mL (≈ 1350 µM) | 0.06 mM |
| CC(C)(C)OCCOCCOCCS(=O)(=O)CCC(C)(C)N(Cl)Cl [Compound 38-91, N,N-dichloro-4-(2-(2-(2-tert-butoxyethoxy)ethoxy)ethylsulfonyl)-2-methylbutan-2-amine] | 8 µg/mL (≈ 19.6 µM) | > 256 µg/mL | 4 µg/mL (≈ 9.79 µM) | 128 µg/mL (≈ 313 µM) | 16 µg/mL (≈ 39.2 µM) | 128 µg/mL (≈ 313 µM) |  |
| CCCCOCC[N+](C)(C)CCC(C)(C)N(Cl)Cl.[Cl-] [Compound 38-133, N-(2-butoxyethyl)-3-(dichloroamino)-N,N,3-trimethylbutan-1-aminium chloride] | 8 µg/mL | 128 µg/mL | 8 µg/mL | 128 µg/mL | 64 µg/mL | 1020 µg/mL | 0.26 mM |
| CCCCCCOCC[N+](C)(C)CCC(C)(C)N(Cl)Cl.Cc1ccc(S(=O)(=O)[O-])cc1 [Compound 38-135, 3-(dichloroamino)-N-(2-(hexyloxy)ethyl)-N,N,3-trimethylbutan-1-aminium 4-methylbenzenesulfonate] | 8 µg/mL | 256 µg/mL | 2 µg/mL | 512 µg/mL | 32 µg/mL | > 1020 µg/mL | 0.08 mM |
| COCCC[N+](C)(C)CCC(C)(C)N(Cl)Cl [Compound 38-137, 3-(dichloroamino)-N-(3-methoxypropyl)-N,N,3-trimethylbutan-1-aminium chloride] | 8 µg/mL | 512 µg/mL | 4 µg/mL | > 1020 µg/mL | 32 µg/mL | > 1020 µg/mL | 1.62 mM |
| CO[C@H]1O[C@H](CS(=O)(=O)CCC(C)(C)N(Cl)Cl)[C@@H](O)[C@H](O)[C@H]1O [Compound 38-141, (2S,3S,4S,5R,6S)-2-(((3-(dichloroamino)-3-methylbutyl)sulfonyl)methyl)-6-methoxytetrahydro-2H-pyran-3,4,5-triol] | 8 µg/mL (≈ 20.2 µM) | 512 µg/mL (≈ 1290 µM) | 8 µg/mL (≈ 20.2 µM) | 256 µg/mL (≈ 646 µM) | 16 µg/mL (≈ 40.4 µM) | > 1020 µg/mL |  |
| CC(C)(CCS(=O)(=O)C(CO)C(O)CO)N(Cl)Cl (stereo not shown) [Compound 38-145, 3-(3-(Dichloroamino)-3-methylbutylsulfonyl)butane-1,2,4-triol] | 2 µg/mL (≈ 6.17 µM) | 64 µg/mL (≈ 197 µM) | 2 µg/mL (≈ 6.17 µM) | 16 µg/mL (≈ 49.3 µM) | 64 µg/mL (≈ 197 µM) | 1020 µg/mL (≈ 3160 µM) |  |
| COCCOCCOCCOCCS(=O)(=O)CCC(C)(C)N(Cl)Cl [Compound 38-147, N,N-dichloro-2-methyl-4-(2-(2-(2-(2-methoxyethoxy)ethoxy)ethoxy)ethylsulfonyl)butan-2-amine] | 8 µg/mL (≈ 19.5 µM) | 256 µg/mL (≈ 624 µM) | 8 µg/mL (≈ 19.5 µM) | 128 µg/mL (≈ 312 µM) | > 256 µg/mL | 2050 µg/mL (≈ 4990 µM) | 0.039 mM |
| CC(C)(CC[N+](C)(C)CCCO)N(Cl)Cl [Compound 38-151, 3-(dichloroamino)-N-(3-hydroxypropyl)-N,N,3-trimethylbutan-1-aminium] | 4 µg/mL | 1020 µg/mL | 4 µg/mL | > 2050 µg/mL | 64 µg/mL | > 1020 µg/mL | 0.12 mM |
